Reference: ChEMBL document CHEMBL5260817, “Polyamine-based analogs and conjugates as antikinetoplastid agents” (Eur J Med Chem, 2017)

Key:
[1] = test system: MRC5; experiment: Anticancer activity against human MRC5 cells assessed as cell growth inhibition measured after 24 hrs by MTT assay; format: functional, cell-based; details: MRC5, 24 h
[2] = test system: Trypanosoma cruzi; experiment: Antiprotozoal activity against Trypanosoma cruzi infected in mouse Peritoneal macrophage cell assessed as growth inhibition at 1.6 uM measured after 4 days relative to control; format: functional; details: 96 h, time 4 day
[3] = Inhibition of Trypanosoma cruzi Fe - Superoxide dismutase
[4] = test system: Trypanosoma cruzi; experiment: Antiprotozoal activity against Trypanosoma cruzi […] infected in mouse assessed as reduction in curative effect at 15 mg/kg relative to control; format: functional
[5] = test system: Trypanosoma cruzi; experiment: Antiprotozoal activity against Trypanosoma cruzi […] infected in African green monkey Vero cells assessed as reduction in infection measured after 72 hrs relative to control; format: functional
[6] = test system: Trypanosoma cruzi; experiment: Antiprotozoal activity against Trypanosoma cruzi […] measured after 72 hrs; format: functional, organism-based
[7] = test system: HepG2; experiment: Anticancer activity against human HepG2 cells assessed as cell growth inhibition; format: functional, cell-based
[8] = test system: Trypanosoma brucei; experiment: Antiprotozoal activity against Trypanosoma […] STIB900 strain; format: functional, organism-based
[9] = Inhibition of Fulllength Trypanosoma brucei MetRS expressed in Escherichia coli in presence of ATP
[10] = Anticancer activity against human CRL-8155 cells assessed as cell growth inhibition; format: functional, cell-based; details: CRL8155
[11] = test system: Leishmania infantum; experiment: Antiprotozoal activity against Leishmania infantum promastigotes measured after 5 days; format: functional, organism-based; details: 120 h
[12] = test system: Leishmania infantum; experiment: Antiprotozoal activity against Leishmania infantum amastigotes measured after 5 days; format: functional, organism-based; details: 120 h
[13] = test system: Trypanosoma cruzi; experiment: Antiprotozoal activity against Trypanosoma cruzi epimastigotes; format: functional, organism-based; details: Trypanosoma cruzi
[14] = test system: Leishmania braziliensis; experiment: Antiprotozoal activity against Leishmania braziliensis promastigotes; format: functional, organism-based
[15] = test system: Leishmania braziliensis; experiment: Antiprotozoal activity against Leishmania braziliensis amastigotes; format: functional, organism-based
[16] = test system: Leishmania chagasi; experiment: Antiprotozoal activity against Leishmania chagasi amastigotes; format: functional, organism-based
[17] = test system: Trypanosoma cruzi; experiment: Antiprotozoal activity against Trypanosoma cruzi amastigotes; format: functional, organism-based
[18] = test system: Trypanosoma cruzi; experiment: Antiprotozoal activity against Trypanosoma cruzi […]; format: functional, organism-based
[19] = test system: Trypanosoma brucei rhodesiense; experiment: Antiprotozoal activity against Trypanosoma brucei rhodesiense; format: functional, organism-based
[20] = test system: Trypanosoma cruzi; experiment: Antiprotozoal activity against Trypanosoma cruzi epimastigote at 10 uM relative to control; format: functional
[21] = target: Trypanothione reductase (Trypanosoma cruzi, UniProt P28593); experiment: Inhibition of Trypanosoma cruzi TryR assessed as inhibition constant
[22] = test system: Trypanosoma brucei; experiment: Antitrypanosomal activity against bloodstream Trypanosoma brucei assessed as parasite growth inhibition; format: functional, organism-based
[23] = test system: Leishmania donovani; experiment: Antiprotozoal activity against Leishmania donovani MHOM/IN/1978/UR6 strain promastigotes assessed as parasite growth inhibition; format: functional, organism-based
[24] = test system: Leishmania donovani; experiment: Antiprotozoal activity against Leishmania donovani WR555 infected in mouse liver assessed as parasite growth inhibition at 10 mg/kg relative to control; format: functional
[25] = test system: Leishmania donovani; experiment: Antiprotozoal activity against Leishmania donovani WR555 infected in mouse liver assessed as parasite growth inhibition at 15 mg/kg relative to control; format: functional
[26] = test system: Leishmania donovani; experiment: Antiprotozoal activity against Leishmania donovani WR555 assessed as growth inhibition at 1 uM relative to control; format: functional
[27] = test system: Trypanosoma brucei; experiment: Trypanocidal activity against Trypanosoma brucei K 243-As-10-3 strain; format: functional, organism-based
[28] = test system: Trypanosoma brucei; experiment: Trypanocidal activity against Trypanosoma brucei K 269 strain; format: functional, organism-based
[29] = test system: Trypanosoma brucei; experiment: Trypanocidal activity against Trypanosoma brucei K 243 strain; format: functional, organism-based
[30] = test system: Trypanosoma brucei; experiment: Trypanocidal activity against Trypanosoma brucei Lab 110 strain; format: functional, organism-based
[31] = test system: Leishmania donovani; experiment: Leishmanicidal activity against Leishmania donovani MHOM/PE/84/LC26; format: functional, organism-based
[32] = test system: Leishmania infantum; experiment: Leishmanicidal activity against Leishmania infantum MCAN/ES/2001/UCM-10; format: functional, organism-based
[33] = test system: Leishmania braziliensis; experiment: Leishmanicidal activity against Leishmania braziliensis MHOM/BR/1975/M2904; format: functional, organism-based
[34] = test system: Trypanosoma cruzi; experiment: Antiprotozoal activity against Trypanosoma cruzi infected in mouse Peritoneal macrophage cell assessed as growth inhibition at 0.8 uM measured after 4 days relative to control; format: functional; details: 96 h, time 4 day
[35] = test system: Trypanosoma brucei rhodesiense; experiment: Antiprotozoal activity against Trypanosoma brucei rhodesiense STIB900 strain assessed as trypanocidal activity; format: functional, organism-based
[36] = Anticancer activity against rat Myoblast cells assessed as cell growth inhibition; format: functional, cell-based
[37] = test system: MRC5; experiment: Anticancer activity against human MRC5 cells assessed as cell growth inhibition; format: functional, cell-based
[38] = test system: Leishmania infantum; experiment: Antiprotozoal activity against Leishmania infantum amastigotes measured after 7 days by microscopic analysis; format: functional, organism-based; details: 168 h
[39] = test system: Trypanosoma cruzi; experiment: Antiprotozoal activity against Trypanosoma cruzi amastigotes measured after 4 days; format: functional, organism-based; details: 96 h
[40] = test system: Trypanosoma brucei; experiment: Antiprotozoal activity against Trypanosoma brucei trypomastigotes measured after 4 days by MTT assay; format: functional, organism-based; details: 96 h
[41] = test system: Leishmania donovani; experiment: Antiprotozoal activity against Leishmania donovani promastigote assessed as lethality at 10 uM relative to control; format: functional
[42] = test system: Trypanosoma brucei; experiment: Antiprotozoal activity against Trypanosoma brucei […] assessed as lethality at 10 uM relative to control; format: functional
[43] = Inhibition of TryR (unknown origin) assessed as inhibition constant; design: species or system Bacteria
[44] = Inhibition of TryR (unknown origin) assessed as inhibition constant by FRET assay
[45] = test system: Leishmania donovani; experiment: Antiprotozoal activity against Leishmania donovani MHOM/PE/84/LC26 amastigotes infected in mouse J774.2 cells measured after 72 hrs; format: functional, organism-based; details: J774.2, 72 h
[46] = test system: Leishmania infantum; experiment: Antiprotozoal activity against Leishmania infantum MCAN/ES/2001/UCM-10 amastigotes infected in mouse J774.2 cells measured after 72 hrs; format: functional, organism-based; details: J774.2, 72 h
[47] = test system: Leishmania amazonensis; experiment: Antiprotozoal activity against Leishmania amazonensis PH8 strain […] assessed as […] at 10 ug/ml relative to control; format: functional; details: dose 10 µg/ml
[48] = test system: Leishmania braziliensis; experiment: Antiprotozoal activity against Leishmania braziliensis 2903 strain […] assessed as […] at 10 ug/ml relative to control; format: functional; details: dose 10 µg/ml
[49] = test system: Leishmania donovani; experiment: Antiprotozoal activity against Leishmania donovani PP75 strain […] assessed as […] at 10 ug/ml relative to control; format: functional; details: dose 10 µg/ml
[50] = test system: Leishmania donovani; experiment: Antiprotozoal activity against Leishmania donovani LV9 strain amastigotes; format: functional, organism-based
[51] = Inhibition of Leishmania infantum His tagged TryS in presence of ATP by LDH/PK assay
[52] = test system: Leishmania infantum; experiment: Antiprotozoal activity against Leishmania infantum; format: functional, organism-based
[53] = Inhibition of Trypanosoma brucei His tagged TryS in presence of ATP by LDH/PK assay
[54] = target: Trypanothione synthetase (Crithidia fasciculata, UniProt O60993); experiment: Inhibition of Crithidia fasciculata His tagged TryS in presence of ATP by LDH/PK assay
Trypanothione synthetase, sequence (O60993 whole entry): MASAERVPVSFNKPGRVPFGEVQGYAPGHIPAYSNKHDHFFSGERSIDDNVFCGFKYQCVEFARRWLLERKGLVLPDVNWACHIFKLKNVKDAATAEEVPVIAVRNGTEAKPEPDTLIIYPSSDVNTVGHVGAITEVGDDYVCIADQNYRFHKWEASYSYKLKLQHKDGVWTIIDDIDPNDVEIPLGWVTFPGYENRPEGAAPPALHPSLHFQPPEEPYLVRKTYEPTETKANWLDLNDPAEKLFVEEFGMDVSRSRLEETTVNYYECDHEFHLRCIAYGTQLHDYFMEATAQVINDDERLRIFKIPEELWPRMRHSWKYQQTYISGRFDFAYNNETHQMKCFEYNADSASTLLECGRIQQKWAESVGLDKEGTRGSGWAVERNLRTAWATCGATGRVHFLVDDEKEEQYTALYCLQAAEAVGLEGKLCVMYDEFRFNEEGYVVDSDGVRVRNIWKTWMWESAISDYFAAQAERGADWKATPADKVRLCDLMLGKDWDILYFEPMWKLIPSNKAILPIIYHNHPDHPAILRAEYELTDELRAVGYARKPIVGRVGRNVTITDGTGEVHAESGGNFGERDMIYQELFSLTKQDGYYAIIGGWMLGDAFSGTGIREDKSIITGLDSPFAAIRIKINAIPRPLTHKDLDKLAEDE

Trypanothione reductase, sequence (P28593 whole entry): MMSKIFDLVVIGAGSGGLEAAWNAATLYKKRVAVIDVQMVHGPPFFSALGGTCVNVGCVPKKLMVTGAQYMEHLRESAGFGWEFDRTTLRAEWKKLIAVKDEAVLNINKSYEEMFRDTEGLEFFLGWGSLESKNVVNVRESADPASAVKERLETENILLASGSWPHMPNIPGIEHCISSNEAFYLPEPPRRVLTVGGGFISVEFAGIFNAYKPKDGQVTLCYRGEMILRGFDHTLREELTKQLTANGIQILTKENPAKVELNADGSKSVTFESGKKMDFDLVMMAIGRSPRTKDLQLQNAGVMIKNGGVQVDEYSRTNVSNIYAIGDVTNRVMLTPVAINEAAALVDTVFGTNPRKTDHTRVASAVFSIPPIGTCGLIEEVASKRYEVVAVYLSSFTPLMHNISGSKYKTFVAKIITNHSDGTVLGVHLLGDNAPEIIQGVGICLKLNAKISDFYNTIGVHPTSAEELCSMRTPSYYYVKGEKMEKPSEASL

In the case of `Clc1ccc(CNCCCN2CCN(CCCNCc3ccc(Cl)cc3)CC2)cc1`, the IC50 [1] is reported as 4.5 µM and the inhibition at 1.6 µM [2] is reported as 95%.

For `c1ccc(CN2CCN(Cc3ccccn3)CCN(Cc3ccccn3)CC2)nc1`, the IC50 [3] was 18 µM, the inhibition in vivo at 15 mg/kg [4] was 33% and the “inhibition (INH)” value [5] was 81%. For the same molecule, the IC50 [6] was 7 µM.

Molecule `O=C(NCCCNCc1cc(Cl)cc(Cl)c1)Nc1ccsc1` has an IC50 [7] of 13 µM, an IC50 [8] of 200 nM and an IC50 [9] of 28 nM. It also gave an IC50 [10] of 200 nM.

`O=C1c2cccc3cccc(c23)C(=O)N1CCCNCCCCNCCCN1C(=O)c2cccc3cccc(c23)C1=O` gave an IC50 [11] of 1000 nM and an IC50 [12] of 1000 nM.

`CCCCCCCCCCNCCCCCCN` gave an IC50 [13] of 10 µM, an IC50 [14] of 10 µM and an IC50 [15] of 10 µM. It also gave an IC50 [16] of 10 µM and an IC50 [17] of 10 µM.

For `CCCCN(CCCC)CCCN`, the IC50 [18] was 4.66 µM.

With `CN1CCN(CCCNc2cc(Cl)ccc2Sc2ccccc2)CC1` the IC50 [19] was 980 nM, the inhibition at 10 µM [20] was 85% and the Ki [21] was 27 µM.

For `Nc1nc(N)nc(NCCCNCCCCCCCNCCCNCCCNc2nc(N)nc(N)n2)n1`, the IC50 [22] was 24 µM.

With `c1ccc(CNCCCNCCCCCCCNCCCNCc2ccccc2)cc1` the IC50 [23] was 18 µM, the inhibition in vivo at 10 mg/kg [24] was 65% and the inhibition in vivo at 15 mg/kg [25] was 99.9%. The inhibition at 1 µM [26] was 77%, the IC50 [27] was 10 µM and the IC50 [28] was 10 µM. It also gave an IC50 [29] of 10 µM and an IC50 [30] of 10 µM.

`CN(CCCNc1c(NCCC[N+](C)(C)C)c(=O)c1=O)CCCNc1c(NCCC[N+](C)(C)C)c(=O)c1=O` showed an IC50 [31] of over 15 µM, an IC50 [32] of over 15 µM and an IC50 [33] of over 15 µM.

`Clc1ccc(Sc2ccccc2)c(CNCCCN2CCN(CCCNCc3cc(Cl)ccc3Sc3ccccc3)CC2)c1` gave an inhibition at 0.8 µM [34] of 90%.

Work on `CN(C)CCCNc1cc(Cl)ccc1Sc1ccc(C(F)(F)F)cc1` yielded an IC50 [35] of 1200 nM and an IC50 [36] of 9.8 µM.

`COc1ccc2nc3cc(Cl)ccc3c(NCCCN(CCCNc3c4ccc(Cl)cc4nc4ccc(OC)cc34)C(=O)C(NC(=O)OC(C)(C)C)C(C)C)c2c1` (centres undefined) gave an IC50 [37] of over 3.13 µM, an IC50 [38] of under 1560 nM and an IC50 [39] of under 1560 nM. The IC50 [40] was under 1560 nM.

`COc1ccc2nc3cc(Cl)ccc3c(NCCNCCCNCCNc3c4ccc(Cl)cc4nc4ccc(OC)cc34)c2c1` showed an Activity [41] of 99% and an Activity [42] of 99%.

Molecule `O=C(NCCCNCCCCNCCCNC(=O)c1cnc2cc(C(F)(F)F)ccc2c1O)c1cnc2cc(C(F)(F)F)ccc2c1O` has a Ki [43] of 750 nM and a Ki [44] of 750 nM.

`CN1CCCNc2c(c(=O)c2=O)NCCCN(C)CCCNc2c(c(=O)c2=O)NCCC1` gave an IC50 [45] of 20 µM and an IC50 [46] of 20 µM.

Work on `CCN(CC)CCCCCCNc1cc(OC)cc2c(C)ccnc12` [SITAMAQUINE] yielded an Activity [47] of 80%, an Activity [48] of 80% and an Activity [49] of 80%. For the same molecule, the IC50 [50] was 4 µM.

`CNCCNC(=O)CN1C(=O)Cc2c([nH]c3ccc(Br)cc23)-c2ccc(Cl)cc21` showed an IC50 [51] of 150 nM, an IC50 [52] of 12.6 µM and an IC50 [53] of 59 µM. The IC50 [54] was 30 nM.
